From US9273095B2, “Antibiotic peptide and preparation method therefor and application therefor” (priority 2011, dated 2016)
Values after ≈ are worked out from the molar mass of the structure shown. Non-standard residues stand in square brackets, D forms with d. Residues, ends and D or L forms follow the SMILES beside them.

How the values were obtained:
[1] = test system: red cell suspension from healthy volunteers; experiment: Hemolytic activity test; assay type: cell-based, human; details: for Hemolytic activity, absorbancy (OD value) at 570 nm: 4 hours at 37° C., OD higher than 0.1 is hemolytic, n = 3
How it was run: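 Samples serially diluted in PBS (1000 to 4 μg/ml), mixed with equal volume of 2% washed red cell suspension from healthy human volunteers, in triplicate, 4 hours at 37° C. Supernatant OD read at 570 nm; water positive, PBS negative control; OD above 0.1 taken as hemolytic.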

aspergillus fumigatus = experiment: microbe, parasite or virus in culture; assay type: cell-based
How it was run: (§1)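 Broth dilution in RPMI-1640 with PL-13 peptide diluted 10-fold from stock; inoculum 1-3×10^3 CFU/ml in the test. Strains activated at 60% humidity, 25 °C for aspergillus or 37 °C for candida; living and blank control wells included.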

candida tropicalis = experiment: microbe, parasite or virus in culture; assay type: cell-based
How it was run: as §1

candida glabrata = experiment: microbe, parasite or virus in culture; assay type: cell-based
How it was run: as §1

candida albicans = experiment: microbe, parasite or virus in culture; assay type: cell-based
How it was run: as §1

aspergillus flavous = experiment: microbe, parasite or virus in culture; assay type: cell-based
How it was run: as §1

klebsiella pneumoniae = experiment: microbe, parasite or virus in culture; assay type: cell-based
How it was run: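 Agar dilution, MH agar, drug 0.03, 0.06, 0.125 … 128 μg/ml final; inoculum 10^4CFU/point via multipoint inoculator; 35° C, 18 h. Standard and clinical isolates, drug-resistant strains included.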

## CC[C@@H](C)[C@@H](NC(=O)[C@@H](CCCCN)NC(=O)[C@@H](CO)NC(=O)[C@@H](Cc1ccccc1)NC(=O)[C@@H](CC(C)C)NC(=O)[C@@H](CCCCN)NC(=O)[C@@H](CCC(=O)O)NC(=O)[C@@H](CC(C)C)NC(=O)[C@@H](CCCNC(=N)N)NC(=O)[C@@H](CCCCN)NC(=O)[C@@H](Cc1ccccc1)NC(C)=O)C(=O)N[C@H](Cc1c[nH]c2ccccc12)C(=O)N[C@H](CC(N)=O)C(=O)N[C@H](Cc1c[nH]c2ccccc12)C(=O)N[C@H](CCCCN)C(N)=O [PL-17] (Ac-[dF][dK][dR][dL][dE][dK][dL][dF][dS][dK][dI][dW][dN][dW][dK]-NH2)
[1]; peptide 7.8125 μg/ml
  Hemolytic activity, absorbancy (OD value) at 570 nm: 0.033
[1]; peptide 15.625 μg/ml
  Hemolytic activity, absorbancy (OD value) at 570 nm: 0.056
[1]; peptide 31.25 μg/ml
  Hemolytic activity, absorbancy (OD value) at 570 nm: 0.063
[1]; peptide 62.5 μg/ml
  Hemolytic activity, absorbancy (OD value) at 570 nm: 0.065
[1]; peptide 125 μg/ml
  Hemolytic activity, absorbancy (OD value) at 570 nm: 0.078
[1]; peptide 250 μg/ml
  Hemolytic activity, absorbancy (OD value) at 570 nm: 0.082
[1]; peptide 500 μg/ml
  Hemolytic activity, absorbancy (OD value) at 570 nm: 0.152
[1]; peptide 1000 μg/ml
  Hemolytic activity, absorbancy (OD value) at 570 nm: 0.339
[1]; summary of Table 9
  hemolytic toxicity (in words): little hemolytic toxicity
Aspergillus fumigatus; JLC 30506 aspergillus fumigatus
  Minimal inhibitory concentration: 32 µg/mL (≈ 15.5 µM)
Aspergillus fumigatus; JLC 30883 aspergillus fumigatus
  Minimal inhibitory concentration: 32 µg/mL (≈ 15.5 µM)
Candida tropicalis; JLC 31379 candida tropicalis
  Minimal inhibitory concentration: 2 µg/mL (≈ 0.969 µM)
Candida tropicalis; JLC 31384 candida tropicalis
  Minimal inhibitory concentration: 2 µg/mL (≈ 0.969 µM)
Candida glabrata; JLC 30367 candida glabrata
  Minimal inhibitory concentration: 4 µg/mL (≈ 1.94 µM)
Candida glabrata; JLC 31512 candida glabrata
  Minimal inhibitory concentration: 8 µg/mL (≈ 3.88 µM)
Candida albicans; JLC 33659 candida albicans
  Minimal inhibitory concentration: 4 µg/mL (≈ 1.94 µM)
Candida albicans; JLC 33660 candida albicans
  Minimal inhibitory concentration: 4 µg/mL (≈ 1.94 µM)
Aspergillus flavous; JLC 30784 aspergillus flavous
  Minimal inhibitory concentration: >64 µg/mL
Aspergillus flavous; JLC 40437 aspergillus flavous
  Minimal inhibitory concentration: >64 µg/mL
Klebsiella pneumoniae; 08-2 (ESBLs) (listed under klebsiella pneumoniae)
  MIC: 0.3 µM (≈ 0.619 µg/mL)
Klebsiella pneumoniae; klebsiella pneumoniae ATCC700603
  MIC: 2.7 µM (≈ 5.57 µg/mL)
Klebsiella pneumoniae; strain 7 (listed under klebsiella pneumoniae)
  MIC: 0.3 µM (≈ 0.619 µg/mL)
